From patent US7393824B1, “Methods of peptide preparation” (Lytix Biopharma, priority 2000, dated 2008) come the findings set out here.

The term EC50 denotes the midpoint of the concentration-response curve. Usually IC50 stands for the concentration at which inhibition is half-maximal.

Like-named read-outs stand apart in the source and are kept apart here. Residues, ends and D or L forms follow the SMILES beside them.

Holding throughout (assay type): cell-based
For one data set, the system named is human red blood cells. In words: Hemolytic assay. The procedure:
The hemolytic activities of the peptides were determined using fresh human red blood cells. 8 ml blood was taken from a healthy person. 4 ml blood was transferred to a polycarbonate tube containing heparin to a final concentration of 10 U/ml, and the remaining 4 ml blood was transferred to a glass tube containing EDTA with final concentration of 15% EDTA. The erythrocytes were isolated from heparin-treated blood by centrifugation in 1500 rpm for 10 min and washed three times with phosphate-buffered saline (PBS) to remove plasma and buffy coat. The cell pellet was resuspended in PBS to make the final volume of 4 ml. The peptide was diluted to a concentration of 2 mg/ml and 0.1 mg/ml. The peptide was further diluted to the concentrations as stated in Table 1. For each tube PBS was added first, then RBCs and peptide solutions. The hematocrit in the blood treated with EDTA was determined after 30 min with Sysmex K-1000, and the resuspended RBCs were diluted into 10% hematocrit. RBCs in PBS (1%) with and without peptides (Table 18) were incubated in a shaker at […] for 1 hour and then centrifuged at 4000 rpm for 5 min. The supernatant were carefully transferred to new polycarbonate tubes and the absorbance of the supernatant was measured at 540 nm. Baseline hemolysis was hemoglobin released in the presence of PBS, and 100% hemolysis was hemoglobin released in the presence of 0.1% Triton X-100.

The subject of data set [1] is MRC-5 cells (normal fibroblasts). Kind of data set: Fibroblast assay (MTT). The procedure: The cells were washed with PBS and then trypsinated using 2 ml trypsin (for a 80 cm culture flask). After the cells had detached from the wall, usually after ca 3 min. of incubation, 5 ml medium with FBS were added. The cells were resuspended and counted. The cells were then transferred to a centrifugation tube and spinned at 1500 rpm for 10 min. The supernatant was removed and the cells resuspended to a concentration of 1×10^5 cells/ml. 100 ul cells suspension was transferred to each well in a 96-well microtiter plate and incubated for 25 hours to allow the cells to attach. Following the incubation, the medium containing serum was removed by turning the plate upside down against a piece of tissue. 100 ul medium without serum and L-glutamine (assay medium) was added to each well, and then removed as before. This was done to remove any trace of serum. […] The rest of the assay was done as previously described for methA, except that after the 2 hour incubation following MTT addition, 80 ul medium instead of 130 ul were removed.

Data set [2] concerns Meth A murine sarcoma cell line.
Experimental: Peptide solutions (0.1 ml) were added and the plates incubated at 37° C. for 30 minutes, 4 hours or 24 hours. The cytotoxicity was measured using the MTT method (Mosmann et al., J. Immunol. (1986) 136, 2348-2357).
The mark [3] stands for this setting: Table 3, unit inferred, read-out: RBC EC50.
The mark [4] stands for this setting: Table 3, unit inferred, read-out: Fib IC50.
Setting [5] is: Table 3, unit inferred, read-out: Meth A IC50.

On to `C[C@H](NC(=O)[C@H](C)NC(=O)[C@H](CCCCN)NC(=O)[C@H](CCCCN)NC(=O)[C@H](Cc1c[nH]c2ccccc12)NC(=O)[C@H](C)NC(=O)[C@H](CCCCN)NC(=O)[C@H](C)NC(=O)[C@H](Cc1c[nH]c2ccccc12)NC(=O)[C@H](CCCCN)NC(=O)[C@H](CCCCN)NC(=O)[C@H](C)NC(=O)[C@H](C)NC(=O)[C@@H](N)CCCCN)C(=O)N[C@@H](CCCCN)C(=O)N[C@@H](C)C(=O)N[C@@H](Cc1c[nH]c2ccccc12)C(=O)N[C@@H](CCCCN)C(=O)O` [KA 18W6,10,17] (H-KAAKKWAKAWKKAAKAWK-OH; N-terminus and C-terminus assumed), for which the EC50 in the data set on human red blood cells (red cells of human) is more than 422 µM. For the same molecule, the IC50 was more than 211 µM in data set [1] and not below 211 µM in data set [2] (Table 1, KA18 peptides, read-out: IC50 Meth A).
Consider `C[C@H](NC(=O)[C@H](C)NC(=O)[C@H](CCCCN)NC(=O)[C@H](CCCCN)NC(=O)[C@H](C)NC(=O)[C@H](Cc1c[nH]c2ccccc12)NC(=O)[C@H](CCCCN)NC(=O)[C@H](Cc1c[nH]c2ccccc12)NC(=O)[C@H](C)NC(=O)[C@H](CCCCN)NC(=O)[C@H](CCCCN)NC(=O)[C@H](C)NC(=O)[C@H](C)NC(=O)[C@@H](N)CCCCN)C(=O)N[C@@H](CCCCN)C(=O)N[C@@H](Cc1c[nH]c2ccccc12)C(=O)N[C@@H](C)C(=O)N[C@@H](CCCCN)C(=O)O` [KA 18W7,9,16] (H-KAAKKAWKWAKKAAKWAK-OH; N-terminus and C-terminus assumed), for which, in the data set on human red blood cells (red cells of human), the EC50 is more than 422 µM. In addition, the IC50 in data set [1] is more than 211 µM; in data set [2] (4 h) it was 32 µM.
The corresponding values for `C[C@H](NC(=O)[C@H](C)NC(=O)[C@H](CCCCN)NC(=O)[C@H](C)NC(=O)[C@H](C)NC(=O)[C@H](CCCCN)NC(=O)[C@H](CCCCN)NC(=O)[C@H](Cc1c[nH]c2ccccc12)NC(=O)[C@H](C)NC(=O)[C@H](CCCCN)NC(=O)[C@H](C)NC(=O)[C@H](C)NC(=O)[C@H](CCCCN)NC(=O)[C@H](CCCCN)NC(=O)[C@H](C)NC(=O)[C@H](C)NC(=O)[C@@H](N)CCCCN)C(=O)N[C@@H](CCCCN)C(=O)O` [KA 18W10] (H-KAAKKAAKAWKKAAKAAK-OH; N-terminus and C-terminus assumed) are more than 467 µM, more than 234 µM and more than 234 µM.
On the same counts, the results for `C[C@H](NC(=O)[C@H](C)NC(=O)[C@H](CCCCN)NC(=O)[C@H](CCCCN)NC(=O)[C@H](C)NC(=O)[C@H](C)NC(=O)[C@@H](N)CCCCN)C(=O)N[C@@H](CCCCN)C(=O)N[C@@H](C)C(=O)N[C@@H](C)C(=O)N[C@@H](CCCCN)C(=O)N[C@@H](CCCCN)C(=O)N[C@@H](C)C(=O)N[C@@H](C)C(=O)N[C@@H](CCCCN)C(=O)N[C@@H](Cc1c[nH]c2ccccc12)C(=O)N[C@@H](C)C(=O)N[C@@H](CCCCN)C(=O)O` [KA 18W16] (H-KAAKKAAKAAKKAAKWAK-OH; N-terminus and C-terminus assumed) are more than 467 µM, more than 234 µM and more than 234 µM.
The corresponding values for `C[C@H](NC(=O)[C@H](C)NC(=O)[C@H](CCCCN)NC(=O)[C@H](Cc1c[nH]c2ccccc12)NC(=O)[C@H](C)NC(=O)[C@H](CCCCN)NC(=O)[C@H](CCCCN)NC(=O)[C@H](C)NC(=O)[C@H](C)NC(=O)[C@@H](N)CCCCN)C(=O)N[C@@H](CCCCN)C(=O)N[C@@H](CCCCN)C(=O)N[C@@H](C)C(=O)N[C@@H](C)C(=O)N[C@@H](CCCCN)C(=O)N[C@@H](Cc1c[nH]c2ccccc12)C(=O)N[C@@H](C)C(=O)N[C@@H](CCCCN)C(=O)O` [KA W7,16] (H-KAAKKAWKAAKKAAKWAK-OH; N-terminus and C-terminus assumed) are more than 444 µM, more than 222 µM and more than 222 µM.
Take `CSCC[C@H](NC(=O)[C@H](CCCNC(=N)N)NC(=O)[C@H](Cc1c[nH]c2ccccc12)NC(=O)[C@H](C)NC(=O)[C@H](Cc1c[nH]c2ccccc12)NC(=O)[C@H](CCCNC(=N)N)NC(=O)[C@H](Cc1ccccc1)NC(=O)[C@H](C)NC(=O)[C@H](CCCCN)NC(=O)[C@H](CCCNC(=N)N)NC(=O)[C@H](Cc1c[nH]c2ccccc12)NC(=O)[C@H](C)NC(=O)[C@@H]1CCCN1)C(=O)N[C@@H](CC(C)C)C(=O)N[C@@H](CCCCN)C(=O)N[C@@H](CCCCN)C(=O)N[C@@H](C)C(=O)N[C@@H](C)C(=O)O` [LFB (14-31)m, PAWRKAFRWAWRMLKKAA] (H-PAWRKAFRWAWRMLKKAA-OH): in data set [1], the “toxicity to fibroblasts” value is “highly toxic to fibroblasts”.
In the data set on human red blood cells (red cells of human), `CC[C@H](C)[C@H](NC(=O)[C@H](CCCNC(=N)N)NC(=O)[C@H](Cc1ccccc1)NC(=O)[C@H](C)NC(=O)[C@H](CCCCN)NC(=O)[C@H](CCCNC(=N)N)NC(=O)[C@H](Cc1c[nH]c2ccccc12)NC(=O)[C@H](C)NC(=O)[C@@H]1CCCN1)C(=O)N[C@@H](C)C(=O)N[C@@H](Cc1c[nH]c2ccccc12)C(=O)N[C@@H](CCCNC(=N)N)C(=O)N[C@@H](CCSC)C(=O)N[C@@H](CC(C)C)C(=O)N[C@@H](CCCCN)C(=O)N[C@@H](CCCCN)C(=O)N[C@@H](C)C(=O)N[C@@H](C)C(=O)O` [W9→I9] (H-PAWRKAFRIAWRMLKKAA-OH; N-terminus and C-terminus assumed) had an EC50 of 155 µM.
With (KAAKKAA)3 Bip9,16 [KA27], the EC50 in the data set with human red blood cells (setting [3]) was more than 429 µM. For the same molecule, the IC50 in data set [1] (setting [4]) was more than 429 µM; in data set [2] (setting [5]), 24 µM.
In the case of (KAAKKAA)3 F2,9,16,20 [KA17], in the data set on human red blood cells (setting [3]), the EC50 was more than 429 µM. The IC50 in data set [1] (setting [4]) is more than 429 µM; in data set [2] (setting [5]), 37 µM.
For (KAAKKAA)3 W2,3,20 [KA15], the EC50 with human red blood cells (setting [3]) is more than 422 µM. The values for the IC50 in data set [1] (setting [4]) and in data set [2] (setting [5]) were 246 µM and 16 µM, respectively.
The corresponding values for (KAAKKAA)3 W2,3,20,21 [KA19] are more than 402 µM, 374 µM and 19 µM.
On the same counts, the results for (KAAKKAA)3 W2,9,16 [KA 5] are more than 422 µM, 302 µM and 15 µM.
As for (KAAKKAA)3 W2,9,16,20 [KA 8], the EC50 with human red blood cells (setting [3]) was more than 402 µM. The figures for the IC50 in data set [1] (setting [4]) and in data set [2] (setting [5]) were 23 µM and 4 µM, respectively.
The corresponding values for (KAAKKAA)3 W6,10,17 [KA 31] are more than 422 µM, more than 422 µM and 147 µM.
With (KAAKKAA)3 W7,9,14,16 [KA 4], the EC50 with human red blood cells (setting [3]) is more than 402 µM. Further, the IC50 in data set [1] (setting [4]) was found to be 30 µM; in data set [2] (setting [5]), 5 µM.
For the molecule (KAAKKAA)3 W7,9,16 [KA 32], the EC50 with human red blood cells (setting [3]) is more than 422 µM. The IC50 in data set [1] (setting [4]) is more than 422 µM; in data set [2] (setting [5]), 28 µM.
For the molecule (KAAKKAA)3 W7,10,17 [KA23], the EC50 in the data set on human red blood cells (setting [3]) was more than 422 µM. In addition, the results for the IC50 in data set [1] (setting [4]) and in data set [2] (setting [5]) were more than 422 µM and 110 µM, respectively.
For the molecule (KAAKKAA)3 W7,16,17 [KA24], the EC50 in the data set on human red blood cells (setting [3]) was more than 422 µM. Further, the IC50 is more than 422 µM in data set [1] (setting [4]) and 29 µM in data set [2] (setting [5]).
For the molecule (KAAKKAA)3 W9,16 [KA 7], in the data set with human red blood cells (setting [3]), the EC50 is more than 444 µM. Moreover, the figures for the IC50 in data set [1] (setting [4]) and in data set [2] (setting [5]) were more than 444 µM and more than 222 µM, respectively.
Consider (OAAOOAA)3 W7,9,14,16 [KA14], for which the EC50 in the data set on human red blood cells (setting [3]) is more than 424 µM. Also, the values for the IC50 in data set [1] (setting [4]) and in data set [2] (setting [5]) were 60 µM and 5 µM, respectively.
On the same counts, the results for KKAWKWAKKAWKWAKKA [KA18] are more than 451 µM, 115 µM and 8 µM.
On the same counts, the results for KKWAKKAWKWAKKAW [KA22, 15-mer] are more than 514 µM, more than 514 µM and 30 µM.
The corresponding values for WKWAKKAAKWAWKAA [KA20, 15-mer] are more than 546 µM, 307 µM and 140 µM.
